Assays:
NASH mice = experiment: HE staining and NAFLD Activity score in NASH mice; conditions: for NAFLD Activity score (NAS): mean±SD, Vehicle 5.9±1.0, tended to decrease
Protocol: NASH was induced in 40 male mice by a single subcutaneous injection of 200 μg streptozotocin (Sigma-Aldrich, USA) 2 days after birth and feeding with high fat diet (HFD, 57 kcal % fat, cat# HFD32, CLEA Japan, Japan) after 4 weeks of age. The mice were randomized into 5 groups of 8 mice at 9 weeks of age. Eight male littermates, fed with normal diet (cat# CE-2, CLEA Japan) without streptozotocin treatment, were used for the Normal group.
The test substance solution was filled in the osmotic pumps at concentrations determined based on the individual body weight at the start of treatment (day 0). Telmisartan was administered by oral route in a volume of 10 mL/kg body weight.
Telmisartan was administered once daily at a dose of 10 mg/kg body weight.
For HE staining, sections were cut from paraffin blocks of liver tissue prefixed in Bouin's solution and stained with Lillie-Mayer's Hematoxylin (Muto Pure Chemicals, Japan) and eosin solution (Wako Pure Chemical Industries).

[1] = Body weight and general condition of NASH mice; conditions: for Mean body weight at sacrifice / Mean body weight during the treatment period: NASH mice; for Mean body weight at sacrifice: mean±SD, Vehicle 22.9±2.9, no significant difference; for Mean body weight during the treatment period: versus vehicle group
Protocol: The viability, clinical signs and behavior were monitored daily. Body weight was recorded daily before drug administration. […] The animals were sacrificed by exsanguination through direct cardiac puncture under ether anesthesia (Wako Pure Chemical Industries).

α-SMA = experiment: Quantitative RT-PCR of liver, α-SMA mRNA, NASH mice; format: in vivo, C57BL/6J mice; conditions: 13 weeks of age, mean ± SD
Protocol: (§1) Total RNA was extracted from liver samples using RNAiso (Takara Bio, Japan) according to the manufacturer's instructions. One μg of RNA was reverse-transcribed using a reaction mixture containing 4.4 mM MgCl2 (Roche, Switzerland), 40 U RNase inhibitor (Toyobo, Japan), 0.5 mM dNTP (Promega, USA), 6.28 μM random hexamer (Promega), 5× first strand buffer (Promega), 10 mM dithiothreitol (Invitrogen, USA) and 200 U MMLV-RT (Invitrogen) in a final volume of 20 μL. The reaction was carried out for 1 hour at 37° C., followed by 5 minutes at 99° C. Real-time PCR was performed using real-time PCR DICE and SYBR premix Taq (Takara Bio). To calculate the relative mRNA expression level, the expression of each gene was normalized to that of reference gene 36B4 (gene symbol: Rplp0). Information of PCR-primer sets and the plate layout was described in Table 1.

Collagen Type 3 = experiment: Quantitative RT-PCR of liver, Collagen Type 3 mRNA, NASH mice; format: in vivo, C57BL/6J mice; conditions: 13 weeks of age, mean ± SD
Protocol: as §1

[2] = high dose 3 mg/kg/day s.c. infusion 9-13 wks
[3] = low dose 1 mg/kg/day s.c. infusion 9-13 wks

Which “HE-stained liver sections, difference from Vehicle group” value (NASH mice; [2]) does the source give for `C[C@H]1[C@H]2N(C(=O)CN(C)N2C(=O)NCc2ccccc2)[C@@H](Cc2ccc(OP(=O)(O)O)cc2)C(=O)N1Cc1cccc2cccnc12` [Compound A, 4-(((6S,9S,9aS)-1-(benzylcarbamoyl)-2,9-dimethyl-4,7-dioxo-8-(quinolin-8-ylmethyl)octahydro-1H-pyrazino[2,1-c][1,2,4]triazin-6-yl)methyl)phenyl dihydrogen phosphate] here?
Its value is “No obvious difference”.

What about the “NAFLD Activity score (NAS)” value (NASH mice; [2]) of the same compound?
The value was 5.1±0.6.

What about the “HE-stained liver sections: lobular inflammation” value (NASH mice; low dose 1 mg/kg/day s.c. infusion 9-13 wks, compared with the Vehicle group) of the same compound?
The value was “improved”.

What about the “NAFLD Activity score (NAS)” value (NASH mice; [3]) of the same compound?
The value was 4.8±0.9.

And the “Mean body weight at sacrifice” value [1, 2]?
Its value is 23.7 ± 1.1 g.

What about the “Mean body weight during the treatment period” value ([1]; high dose 3 mg/kg/day s.c. infusion) of the same compound?
The value was “no significant differences”.

What about the “Mean body weight at sacrifice” value [1, 3] of the same compound?
The value was 22.6 ± 2.6 g.

What about the “Mean body weight during the treatment period” value ([1]; low dose 1 mg/kg/day s.c. infusion) of the same compound?
The value was “no significant differences”.

What about the General condition ([1]; any of the animals (all groups), throughout the treatment period) of the same compound?
Its General condition is “No deterioration”.

And the “α-SMA mRNA expression level (relative, normalized to 36B4)” value (α-SMA; high dose 3 mg/kg/day s.c. infusion 9-13 wks, n = 8, Vehicle 3.19 ± 1.81, no significant difference, 3 mg/kg/day)?
The value was 2.23±1.23.

What about the “α-SMA mRNA expression level (relative, normalized to 36B4)” value (α-SMA; low dose 1 mg/kg/day s.c. infusion 9-13 wks, n = 8, Vehicle 3.19 ± 1.81, tended to be down-regulated, 1 mg/kg/day) of the same compound?
The value was 1.88±0.60.

And the “Collagen Type 3 mRNA expression level (relative, normalized to 36B4)” value (Collagen Type 3; high dose 3 mg/kg/day s.c. infusion 9-13 wks, n = 8, Vehicle 3.09 ± 1.51, tended to be down-regulated, 3 mg/kg/day)?
The value was 2.22±0.46.

What about the “Collagen Type 3 mRNA expression level (relative, normalized to 36B4)” value (Collagen Type 3; low dose 1 mg/kg/day s.c. infusion 9-13 wks, n = 8, Vehicle 3.09 ± 1.51, significantly down-regulated, 1 mg/kg/day) of the same compound?
The value was 1.93±0.37.

Reference: patent US20160263131A1, “TREATMENT OF HEPATIC FIBROSIS USING AN INHIBITOR OF CBP/CATENIN” (priority 2013, published 2016)
